These results are taken from ChEMBL document CHEMBL4739717, “Methods of treating cartilage disorders through inhibition of clk and dyrk” (2020).

A short description of assay [1]: Induction of chondrogenesis in human MSC assessed as incubated for 6 days by rhodamine B and Nile red staining based imaging analysis. The assay is classed as functional. The settings on record: bmmsc.
Assay [2] addresses Dual specificity tyrosine-phosphorylation-regulated kinase 1A (Homo sapiens, UniProt Q13627). The experiment in a line: Inhibition of recombinant DYRK1A (unknown origin) using Ser/Thr 18 peptide as substrate incubated for 1 hr in presence of ATP by FRET assay.
Assay [3] in a line: Effect on Wnt signaling pathway in human SW480 cells harbouring TCF/LEF luciferase reporter gene and SP5-Luc reporter gene incubated for 36 to 48 hrs by luminescence assay. The assay is classed as cell-based. (Reporter assays use an easily measured gene product as a stand-in for the process of interest.)
The nature of assay [4]: Induction of chondrogenesis in human MSC assessed as maximum activity at 100 nM incubated for 6 days by rhodamine B and Nile red staining based imaging analysis relative to control. It is filed as functional. The following applies: BMMSC, 144 h, time 6 day.

Each structure is given as a SMILES string.

The EC50 is the concentration giving half of the maximal effect. One may read the Emax as the maximal effect, on the per cent scale that the assay sets. Turning to `c1cncc(-c2cc3c(-c4cc5c(-c6cccnc6)cncc5[nH]4)n[nH]c3cn2)c1`, the values for the 50% effective concentration (EC50) in assay [1], in assay [2] and in assay [3] were 100 nM, 17 nM and 1340 nM, respectively. For the same compound, in assay [4], the Emax at 0.1 µM worked out at 76.4%.
For `CCCC(=O)Nc1cncc(-c2cnc3[nH]nc(-c4nc5c(-c6ccoc6)cccc5[nH]4)c3c2)c1`, the EC50 in assay [1] is 100 nM; in assay [2] it was 25 nM; in assay [3], 63 nM. Further, the Emax at 0.1 µM in assay [4] came out at 111%.
For `O=C(Cc1ccccc1)Nc1cncc(-c2ccc3[nH]nc(-c4nc5c(-c6cccc(F)c6)cncc5[nH]4)c3c2)c1` the same measures were 100 nM, 24 nM, 23 nM and 124%.
Take `CC(C)CC(=O)Nc1cncc(-c2ccc3[nH]nc(-c4nc5c(-c6ccc(F)cc6)cncc5[nH]4)c3c2)c1`: the EC50 is 100 nM in assay [1], 60 nM in assay [2] and 57 nM in assay [3]. In addition, the maximum response (Emax) at 0.1 µM in assay [4] came out at 125%.
On to `Cc1cn(-c2nccc3[nH]c(-c4n[nH]c5ccc(-c6cncc(NC(=O)CC(C)C)c6)nc45)nc23)cn1`, for which the results for the EC50 in assay [1], in assay [2] and in assay [3] were 30 nM, 28 nM and 2900 nM, respectively. Also, the maximum response (Emax) at 0.1 µM in assay [4] amounted to 69.3%.
Turning to `Cn1cc(-c2cc3c(-c4nc5c(-c6cccc(F)c6)nccc5[nH]4)n[nH]c3cn2)cn1`, the EC50 was 100 nM in assay [1], 26 nM in assay [2] and 10 nM in assay [3]. Moreover, the Emax at 0.1 µM in assay [4] is 110%.
As to `CCCCC(=O)Nc1cncc(-c2ccc3[nH]nc(-c4cc5c(N6CCCCC6)cccc5[nH]4)c3n2)c1`, the values for the concentration giving a half-maximal response (EC50) in assay [1], in assay [2] and in assay [3] were 100 nM, 40 nM and 572 nM, respectively. The maximum response (Emax) at 0.1 µM in assay [4] worked out at 68.6%.
For `CC(C)Nc1cncc(-c2ccc3[nH]nc(-c4nc5c(-c6ccoc6)ccnc5[nH]4)c3n2)c1` the same measures were 100 nM, 26 nM, 298 nM and 64.2%.
In the case of `CC(C)Nc1cncc(-c2ccc3[nH]nc(-c4nc5c(-c6cccnc6)ccnc5[nH]4)c3n2)c1`, the concentration giving a half-maximal response (EC50) was determined as 10 nM in assay [1], 14 nM in assay [2] and 1750 nM in assay [3]. The Emax at 0.1 µM in assay [4] worked out at 114%.
As to `Cc1ccc(-c2cncc3[nH]c(-c4n[nH]c5cnc(-c6cncc(N)c6)cc45)nc23)s1`, the EC50 in assay [1] turned out to be 100 nM; in assay [2], 44 nM; in assay [3], 10.9 nM. Besides, the Emax at 0.1 µM in assay [4] is 162%.
Take `CC(C)Nc1cncc(-c2cnc3[nH]nc(-c4nc5c(-c6cccc(F)c6)cncc5[nH]4)c3c2)c1`: the values for the EC50 in assay [1], in assay [2] and in assay [3] were 30 nM, 20 nM and 1.2 nM, respectively. Further, the Emax at 0.1 µM in assay [4] amounted to 504%.
Consider `O=C(Nc1cncc(-c2cnc3[nH]nc(-c4cc5c(-c6cccs6)nccc5[nH]4)c3c2)c1)C1CCC1`, for which the EC50 in assay [1] was 100 nM; in assay [2], 46 nM; in assay [3], 473 nM. In addition, in assay [4], the maximal response (Emax) at 0.1 µM came out at 82.2%.
Turning to `CC(C)C(=O)Nc1cncc(-c2cc3c(-c4cc5cnccc5[nH]4)n[nH]c3cn2)c1`, the concentration for a half-maximal effect (EC50) in assay [1] is 30 nM; in assay [2], 1 nM; in assay [3], 399 nM. The maximal effect (Emax) at 0.1 µM in assay [4] worked out at 61.2%.
For `Fc1ccccc1-c1cncc2[nH]c(-c3n[nH]c4ncc(-c5cn[nH]c5)cc34)cc12` the same measures were 100 nM, 20 nM, 375 nM and 51.1%.
For the compound `Nc1cncc(-c2ccc3[nH]nc(-c4cc5c(-c6ccncc6)nccc5[nH]4)c3c2)c1`, the EC50 in assay [1] was found to be 100 nM; in assay [2], 11 nM; in assay [3] it was 658 nM. For the same compound, the Emax at 0.1 µM in assay [4] was determined as 76.8%.
For `Cc1ncc(-c2cnc3[nH]nc(-c4nc5c(-c6cccc(F)c6)nccc5[nH]4)c3c2)n1C` the same measures were 100 nM, 5 nM, 12.5 nM and 152%.
For `Nc1cncc(-c2cc3c(-c4cc5c(N6CCCCC6)cncc5[nH]4)n[nH]c3cn2)c1` the same measures were 30 nM, 6 nM, 2960 nM and 93.5%.
As for `CN(C)c1cncc(-c2ccc3[nH]nc(-c4nc5c(-c6cccc(F)c6)cncc5[nH]4)c3n2)c1`, the values for the concentration for a half-maximal effect (EC50) in assay [1], in assay [2] and in assay [3] were 10 nM, 25 nM and 638 nM, respectively. In addition, the maximal effect (Emax) at 0.1 µM in assay [4] was determined as 154%.
Consider `CC(C)CC(=O)Nc1cncc(-c2ccc3[nH]nc(-c4nc5c(-c6cc(F)cc(CNS(C)(=O)=O)c6)cncc5[nH]4)c3c2)c1`, for which the EC50 in assay [1] turned out to be 100 nM; in assay [2] it was 16 nM; in assay [3], 5 nM. Moreover, in assay [4], the Emax at 0.1 µM amounted to 118%.
For `c1cncc(-c2ccc3[nH]nc(-c4nc5c(-c6ccoc6)cncc5[nH]4)c3c2)c1` the same measures were 100 nM, 3 nM, 45.4 nM and 149%.
For the compound `Cc1ccc(-c2cncc3[nH]c(-c4n[nH]c5cnc(-c6cncc(NC(=O)C7CCC7)c6)cc45)nc23)s1`, the half-maximal effective concentration (EC50) is 100 nM in assay [1], 12 nM in assay [2] and 10.1 nM in assay [3]. Further, the Emax at 0.1 µM in assay [4] is 231%.
Consider `Cc1ccc(-c2cncc3[nH]c(-c4n[nH]c5ccc(-c6cncc(N)c6)nc45)nc23)s1`, for which the results for the EC50 in assay [1], in assay [2] and in assay [3] were 30 nM, 2 nM and 40.7 nM, respectively. Moreover, the Emax at 0.1 µM in assay [4] was found to be 79.4%.
`CCC(=O)Nc1cncc(-c2cnc3[nH]nc(-c4cc5c(-c6cccc(F)c6)cncc5[nH]4)c3c2)c1`: the 50% effective concentration (EC50) in assay [1] worked out at 10 nM; in assay [2] it was 13 nM; in assay [3], 246 nM. For the same compound, the maximal effect (Emax) at 0.1 µM in assay [4] was 113%.
Regarding `CCCCC(=O)Nc1cncc(-c2ccc3[nH]nc(-c4cc5c(-c6ccoc6)cncc5[nH]4)c3c2)c1`, the EC50 was 30 nM in assay [1], 13 nM in assay [2] and 915 nM in assay [3]. The maximum response (Emax) at 0.1 µM in assay [4] came out at 122%.
As for `Cn1cc(-c2cc3c(-c4nc5c(-c6cccc(F)c6)cncc5[nH]4)n[nH]c3cn2)cn1`, the EC50 in assay [1] is 100 nM; in assay [2], 15 nM; in assay [3], 70 nM. The maximal response (Emax) at 0.1 µM in assay [4] stood at 71%.
For `CCCCC(=O)Nc1cncc(-c2cnc3[nH]nc(-c4cc5c(-c6ccncc6)cncc5[nH]4)c3c2)c1`, the concentration for a half-maximal effect (EC50) in assay [1] is 10 nM; in assay [2], 17 nM; in assay [3], above 10000 nM. Further, the Emax at 0.1 µM in assay [4] was determined as 70.4%.
Take `CN1CCN(c2ccnc3[nH]c(-c4n[nH]c5ccc(-c6cncc(N)c6)cc45)cc23)CC1`: the figures for the EC50 in assay [1], in assay [2] and in assay [3] were 100 nM, 7 nM and 1170 nM, respectively. In addition, the Emax at 0.1 µM in assay [4] was determined as 50.2%.
With `Cc1ccncc1-c1cc2c(-c3nc4c(-c5cc(F)cc(CNS(C)(=O)=O)c5)cccc4[nH]3)n[nH]c2cn1`, the EC50 in assay [1] was 30 nM; in assay [2] it was 58 nM; in assay [3], 30.4 nM. In addition, the Emax at 0.1 µM in assay [4] turned out to be 81.8%.
With `CN1CCN(c2cccc3[nH]c(-c4n[nH]c5ncc(-c6cncc(CN7CCCCC7)c6)cc45)cc23)CC1`, the values for the EC50 in assay [1], in assay [2] and in assay [3] were 300 nM, 34 nM and 4750 nM, respectively. In addition, the Emax at 0.1 µM in assay [4] came out at 23.6%.
`Cn1cc(-c2ccc3[nH]nc(-c4cc5c(-c6cccnc6)cncc5[nH]4)c3c2)cn1`: the concentration for a half-maximal effect (EC50) in assay [1] was found to be 30 nM; in assay [2], 53 nM; in assay [3], 250 nM. Besides, in assay [4], the Emax at 0.1 µM was determined as 65.2%.
Turning to `CN1CCN(c2nccc3[nH]c(-c4n[nH]c5cnc(-c6cncc(NC(=O)C7CCCCC7)c6)cc45)cc23)CC1`, the EC50 is 10 nM in assay [1], 3 nM in assay [2] and 3420 nM in assay [3]. For the same compound, in assay [4], the Emax at 0.1 µM turned out to be 60.8%.
`O=C(Nc1cncc(-c2cnc3[nH]nc(-c4nc5c(-c6ccoc6)cncc5[nH]4)c3c2)c1)c1ccccc1`: the concentration for a half-maximal effect (EC50) in assay [1] was 100 nM; in assay [2] it was 30 nM; in assay [3], 51 nM. Besides, the Emax at 0.1 µM in assay [4] was found to be 110%.
In the case of `CCNCc1cncc(-c2ccc3[nH]nc(-c4cc5c(-c6cc(F)cc(CNS(C)(=O)=O)c6)cncc5[nH]4)c3c2)c1`, the concentration giving a half-maximal response (EC50) in assay [1] was 100 nM; in assay [2] it was 21 nM; in assay [3], above 10000 nM. Besides, the maximal effect (Emax) at 0.1 µM in assay [4] stood at 58%.
With `CC(C)CC(=O)Nc1cncc(-c2cnc3[nH]nc(-c4cc5c(-c6ccncc6)cccc5[nH]4)c3c2)c1`, the EC50 in assay [1] turned out to be 30 nM; in assay [2], 23 nM; in assay [3], 711 nM. In addition, the maximum response (Emax) at 0.1 µM in assay [4] was determined as 71.4%.
For `c1cc2[nH]c(-c3n[nH]c4ccc(-c5cncc(CN6CCCCC6)c5)cc34)cc2cn1` the same measures were 100 nM, 4 nM, 685 nM and 122%.
`CN(C)CCOc1cncc(-c2ccc3[nH]nc(-c4nc5c(-c6cccs6)cccc5[nH]4)c3n2)c1`: the 50% effective concentration (EC50) came to 10 nM in assay [1], 41 nM in assay [2] and 3110 nM in assay [3]. Moreover, in assay [4], the maximal response (Emax) at 0.1 µM is 142%.
For `O=C(Nc1cncc(-c2cc3c(-c4cc5c(-c6cccnc6)cccc5[nH]4)n[nH]c3cn2)c1)C1CC1` the same measures were 100 nM, 34 nM, 330 nM and 308%.
Consider `CC(C)(C)CC(=O)Nc1cncc(-c2cc3c(-c4cc5cnccc5[nH]4)n[nH]c3cn2)c1`, for which the EC50 came to 10 nM in assay [1], 3 nM in assay [2] and 1890 nM in assay [3]. For the same compound, the maximal effect (Emax) at 0.1 µM in assay [4] was found to be 58.8%.
Consider `c1cncc(-c2cc3c(-c4nc5ccccc5[nH]4)n[nH]c3cn2)c1`, for which the figures for the concentration giving a half-maximal response (EC50) in assay [1], in assay [2] and in assay [3] were 30 nM, 72 nM and 20.1 nM, respectively. For the same compound, the Emax at 0.1 µM in assay [4] was 80.5%.
